Results from US9371363B2, “Peptides and their use” (Novabiotics Limited, priority 2007, dated 2016).
Like-named read-outs stand apart in the source and are kept apart here. Where no end group is shown, it is not given here.

Assays:
Format in all cases: cell-based
E. coli = test system: E. coli
Protocol: (§1) Broth Dilution Antibacterial Susceptibility Testing
(§2) The sensitivity of relevant bacterial strains to the peptides (was determined using Clinical Laboratory Standard Institute (CLSI; formerly NCCLS) Approved Standards. Bacterial susceptibility was tested using “Methods for Dilution Antimicrobial Susceptibility Tests for Bacteria That Grow […]; Approved Standard—Seventh Edition M7-A7”

S. aureus = test system: S. aureus
Protocol: as §1, §2

Str. pyogenes = test system: Str. pyogenes
Protocol: as §1, §2

P. acnes = test system: P. acnes
Protocol: as §1, §2

Ps. aeruginosa = conditions: Ps. aeruginosa
Protocol: as §1, §2

Compound: N=C(N)NCCC[C@H](NC(=O)[C@H](CCCNC(=N)N)NC(=O)[C@H](CCCNC(=N)N)NC(=O)[C@H](CCCNC(=N)N)NC(=O)[C@H](CCCNC(=N)N)NC(=O)[C@H](CCCNC(=N)N)NC(=O)[C@@H](N)CCCNC(=N)N)C(=O)O [NP105, RRRRRRR (SEQ ID NO: 23)]
- Minimum Inhibitory Concentration, antimicrobial activity, E. coli (E. coli): >2 mM
- Minimum Inhibitory Concentration, antimicrobial activity, S. aureus (S. aureus): >2 mM

Compound: KKKKKKK [NP104, KKKKKKK (SEQ ID NO: 35)]
- Minimum Inhibitory Concentration, antimicrobial activity, E. coli (E. coli): >2 mM
- Minimum Inhibitory Concentration, antimicrobial activity, S. aureus (S. aureus): >2 mM
- Minimum Inhibitory Concentration, antimicrobial activity, Str. pyogenes (Str. pyogenes): 1 mM

Compound: N=C(N)NCCC[C@@H](N)C(=O)N[C@H](CCCNC(=N)N)C(=O)N[C@H](CCCNC(=N)N)C(=O)N[C@H](CCCNC(=N)N)C(=O)N[C@H](CCCNC(=N)N)C(=O)N[C@H](CCCNC(=N)N)C(=O)N[C@H](CCCNC(=N)N)C(=O)N[C@H](CCCNC(=N)N)C(=O)N[C@H](CCCNC(=N)N)C(=O)N[C@H](CCCNC(=N)N)C(=O)N[C@H](CCCNC(=N)N)C(=O)N[C@H](CCCNC(=N)N)C(=O)N[C@H](CCCNC(=N)N)C(=O)O [NP339, dRdRdRdRdRdRdRdRdRdRdRdRdR (SEQ ID NO: 31)]
- Minimum Inhibitory Concentration, antimicrobial activity, P. acnes (P. acnes): 0.02 mM
- Minimum Inhibitory Concentration, antimicrobial activity, Ps. aeruginosa (Ps. aeruginosa; CLSI broth dilution): 0.0625 mM
- Minimum Inhibitory Concentration, antimicrobial activity, S. aureus (S. aureus): 0.25 mM

Compound: (R)n, n = 28-86 [NP121]
- Minimum Inhibitory Concentration, antimicrobial activity, P. acnes (P. acnes; P. acnes, values marked * in mg/ml): 0.01* mg/ml
- Minimum Inhibitory Concentration, antimicrobial activity, Ps. aeruginosa (Ps. aeruginosa; values marked * in mg/ml): 0.0625* mg/ml
- Minimum Inhibitory Concentration, antimicrobial activity, S. aureus (S. aureus; S. aureus, values marked * in mg/ml): 0.0313* mg/ml
